Read-outs that look alike come from different tables or passages of the source.
Columns and labels:
[1] = test system: A549/ATCC; assay: NCI 60 growth inhibition; type: cell-based, human; conditions: Non-Small Cell Lung Cancer, Table 2
Procedure: (§1) The above triazole derivatives of melampomagnolide B were evaluated for growth inhibitory properties against an NCI panel of 60 human cancer cell lines derived from nine human cancer cell types, grouped into disease sub-panels that represent leukemia, lung, colon, central nervous system (CNS), melanoma, renal, ovary, breast, and prostate cancer cells. Growth inhibitory (GI50) effects were measured as a function of the variation of optical density as a percentage of control.

[2] = test system: ACHN; assay: NCI 60 growth inhibition; type: cell-based, human; conditions: Renal Cancer, Table 2
Procedure: as §1

[3] = test system: BT-549; assay: NCI 60 growth inhibition; type: cell-based, human; conditions: BT-549, Breast Cancer, Table 2
Procedure: as §1

[4] = test system: CAKI-1; assay: NCI 60 growth inhibition; type: cell-based, human; conditions: CAKI-1, Renal Cancer, Table 2
Procedure: as §1

[5] = test system: CCRF-CEM; assay: NCI 60 growth inhibition; type: cell-based, human; conditions: Leukemia, Table 2
Procedure: as §1

[6] = test system: COLO 205; assay: NCI 60 growth inhibition; type: cell-based, human; conditions: COLO 205, Colon Cancer, Table 2
Procedure: as §1

[7] = test system: HCC-2998; assay: NCI 60 growth inhibition; type: cell-based, human; conditions: HCC-2998, Colon Cancer, Table 2
Procedure: as §1

[8] = test system: HCT-116; assay: NCI 60 growth inhibition; type: cell-based, human; conditions: HCT-116, Colon Cancer, Table 2
Procedure: as §1

[9] = test system: HL-60(TB); assay: NCI 60 growth inhibition; type: cell-based, human; conditions: HL-60(TB), Leukemia, Table 2
Procedure: as §1

[10] = test system: HT29; assay: NCI 60 growth inhibition; type: cell-based, human; conditions: HT-29, Colon Cancer, Table 2
Procedure: as §1

[11] = test system: IGROV1; assay: NCI 60 growth inhibition; type: cell-based, human; conditions: IGROV1, Ovarian Cancer, Table 2
Procedure: as §1

[12] = test system: K-562; assay: NCI 60 growth inhibition; type: cell-based, human; conditions: K-562, Leukemia, Table 2
Procedure: as §1

[13] = test system: LOX IMVI; assay: NCI 60 growth inhibition; type: cell-based, human; conditions: Melanoma, Table 2
Procedure: as §1

[14] = test system: M14; assay: NCI 60 growth inhibition; type: cell-based, human; conditions: M14, Melanoma, Table 2
Procedure: as §1

[15] = test system: MALME-3M; assay: NCI 60 growth inhibition; type: cell-based, human; conditions: Melanoma, Table 2
Procedure: as §1

[16] = test system: MCF7; assay: NCI 60 growth inhibition; type: cell-based, human; conditions: MCF7, Breast Cancer, Table 2
Procedure: as §1

[17] = test system: MDA-MB-435; assay: NCI 60 growth inhibition; type: cell-based, human; conditions: MDA-MB-435, Melanoma, Table 2
Procedure: as §1

[18] = test system: MDA-MB-468; assay: NCI 60 growth inhibition; type: cell-based, human; conditions: MDA-MB-468, Breast Cancer, Table 2
Procedure: as §1

[19] = test system: MOLT-4; assay: NCI 60 growth inhibition; type: cell-based, human; conditions: MOLT-4, Leukemia, Table 2
Procedure: as §1

[20] = test system: NCI-H23; assay: NCI 60 growth inhibition; type: cell-based, human; conditions: NCI-H23, Non-Small Cell Lung Cancer, Table 2
Procedure: as §1

[21] = test system: NCI-H322M; assay: NCI 60 growth inhibition; type: cell-based, human; conditions: Non-Small Cell Lung Cancer, Table 2
Procedure: as §1

[22] = test system: NCI-H522; assay: NCI 60 growth inhibition; type: cell-based, human; conditions: NCI-H522, Non-Small Cell Lung Cancer, Table 2
Procedure: as §1

[23] = test system: OVCAR-5; assay: NCI 60 growth inhibition; type: cell-based, human; conditions: OVCAR-5, Ovarian Cancer, Table 2
Procedure: as §1

[24] = test system: PC-3; assay: NCI 60 growth inhibition; type: cell-based, human; conditions: PC-3, Prostate Cancer, Table 2
Procedure: as §1

[25] = test system: RXF 393; assay: NCI 60 growth inhibition; type: cell-based, human; conditions: Table 2
Procedure: as §1

[26] = test system: SF-539; assay: NCI 60 growth inhibition; type: cell-based, human; conditions: SF-539, CNS Cancer, Table 2
Procedure: as §1

[27] = test system: SK-MEL-28; assay: NCI 60 growth inhibition; type: cell-based, human; conditions: SK-MEL-28, Melanoma, Table 2
Procedure: as §1

[28] = test system: SK-MEL-2; assay: NCI 60 growth inhibition; type: cell-based, human; conditions: SK-MEL-2, Melanoma, Table 2
Procedure: as §1

[29] = test system: SK-MEL-5; assay: NCI 60 growth inhibition; type: cell-based, human; conditions: SK-MEL-5, Melanoma, Table 2
Procedure: as §1

[30] = test system: SN12C; assay: NCI 60 growth inhibition; type: cell-based, human; conditions: Renal Cancer, Table 2
Procedure: as §1

[31] = test system: SNB-19; assay: NCI 60 growth inhibition; type: cell-based, human; conditions: SNB-19, CNS Cancer, Table 2
Procedure: as §1

[32] = test system: SW-620; assay: NCI 60 growth inhibition; type: cell-based, human; conditions: SW-620, Colon Cancer, Table 2
Procedure: as §1

[33] = test system: T-47D; assay: NCI 60 growth inhibition; type: cell-based, human; conditions: Breast Cancer, Table 2
Procedure: as §1

[34] = test system: UACC-257; assay: NCI 60 growth inhibition; type: cell-based, human; conditions: UACC-257, Melanoma, Table 2
Procedure: as §1

[35] = test system: UACC-62; assay: NCI 60 growth inhibition; type: cell-based, human; conditions: UACC-62, Melanoma, Table 2
Procedure: as §1

[36] = test system: NCI panel of 60 human cancer cell lines; assay: NCI 60 growth inhibition, ranges over groups of cell lines; type: cell-based; conditions: read-out: GI50
Procedure: as §1

[37] = test system: M9 ENL1 cell line; assay: Anti-leukemic activity, Annexin V/7-AAD flow cytometry; type: cell-based; conditions: 24 h of drug exposure; read-out: M9ENL1 (EC50)
Procedure: The newly synthesized triazole derivatives of melampomagnolide B were screened for anti-leukemic activity against M9 ENL1 and primary AML cell lines; the latter were obtained with informed consent from human patients. Evaluations were performed after 24 h of drug exposure using flow cytometric analysis by labeling with Annexin V and 7-aminoactinomycin D (7-AAD) to delineate apoptotic cell populations. In all experiments PTL was included as a reference control.

`C=C1C(=O)O[C@H]2[C@H]1CC/C(Cn1cc(-c3cccc(Cl)c3)nn1)=C\CC[C@@]1(C)O[C@@H]21` [JVM 4-25, (1aR,7aS,10aS,10bS,E)-5((4-(3-Chlorophenyl)-1H-1,2,3-triazol-1-yl)methyl)-1a-methyl-8-methylene-2,3,6,7,7a,8,10a,10b-octahydrooxireno[2′,3′:9,10]cyclodeca[1,2-b]furan-9(1aH)-one] was tested, and the GI50 ([1]; Homo sapiens) was 1790 nM, the GI50 ([2]; Homo sapiens) was 180 nM and the GI50 ([3]; Homo sapiens) was 770 nM. It also gave a GI50 ([4]; Homo sapiens) of 860 nM, a GI50 ([5]; Homo sapiens) of 200 nM and a GI50 ([6]; Homo sapiens) of 410 nM. The GI50 ([7]; Homo sapiens) was 1640 nM, the GI50 ([8]; Homo sapiens) was 160 nM and the GI50 ([9]; Homo sapiens) was 330 nM. The GI50 ([10]; Homo sapiens) was 510 nM, the GI50 ([11]; Homo sapiens, IGROV-1) was 730 nM and the GI50 ([12]; Homo sapiens, K562) was 400 nM. It also gave a GI50 ([13]; Homo sapiens) of 280 nM, a GI50 ([14]; Homo sapiens) of 790 nM and a GI50 ([15]; Homo sapiens) of 1200 nM. It also gave a GI50 ([16]; Homo sapiens) of 310 nM, a GI50 ([17]; Homo sapiens) of 590 nM and a GI50 ([18]; Homo sapiens) of 560 nM. For the same compound, the GI50 ([19]; Homo sapiens) was 310 nM, the GI50 ([20]; Homo sapiens) was 1580 nM and the GI50 ([21]; Homo sapiens) was 2170 nM. For the same compound, the GI50 ([22]; Homo sapiens) was 290 nM, the GI50 ([23]; Homo sapiens) was 1210 nM and the GI50 ([24]; Homo sapiens) was 1980 nM. The GI50 ([25]; Homo sapiens, RXF 393, RXF 393, Renal Cancer) was 550 nM, the GI50 ([26]; Homo sapiens) was 250 nM and the GI50 ([27]; Homo sapiens) was 350 nM. The GI50 ([28]; Homo sapiens) was 1660 nM, the GI50 ([29]; Homo sapiens) was 1700 nM and the GI50 ([30]; Homo sapiens) was 1400 nM. It also gave a GI50 ([31]; Homo sapiens) of 2400 nM, a GI50 ([32]; Homo sapiens) of 330 nM and a GI50 ([33]; Homo sapiens, T47D) of 830 nM. It also gave a GI50 ([34]; Homo sapiens) of 1420 nM, a GI50 ([35]; Homo sapiens) of 620 nM and a GI50 ([36]; all the cell lines in the leukemia sub-panel) of 100 to 500 nM. It also gave a GI50 ([36]; most of the solid tumor cell lines in the panel) of 160 to 990 nM.

`C=C1C(=O)O[C@H]2[C@H]1CC/C(Cn1cc(-c3cc(C)c(C)cc3C)nn1)=C\CC[C@@]1(C)O[C@@H]21` [JVM 4-50] showed an EC50 [37] of 9800 nM, a GI50 [1] of 1730 nM and a GI50 [2] of 1070 nM. The GI50 [3] was 750 nM, the GI50 [4] was 1080 nM and the GI50 [5] was 450 nM. For the same compound, the GI50 [6] was 640 nM, the GI50 [7] was 1720 nM and the GI50 [8] was 330 nM. The GI50 [9] was 640 nM, the GI50 [10] was 500 nM and the GI50 [11] was 1290 nM. For the same compound, the GI50 [12] was 1390 nM, the GI50 [13] was 720 nM and the GI50 [14] was 1500 nM. The GI50 [15] was 1430 nM, the GI50 [16] was 430 nM and the GI50 [17] was 1410 nM. It also gave a GI50 [18] of 530 nM, a GI50 [19] of 2380 nM and a GI50 [20] of 1770 nM. The GI50 [21] was 11100 nM, the GI50 [22] was 280 nM and the GI50 [23] was 1740 nM. It also gave a GI50 [24] of 1470 nM, a GI50 ([25]; RXF 393, Renal Cancer) of 960 nM and a GI50 [26] of 1160 nM. For the same compound, the GI50 [27] was 1400 nM, the GI50 [28] was 1750 nM and the GI50 [29] was 1660 nM. For the same compound, the GI50 [30] was 1490 nM, the GI50 [31] was 3900 nM and the GI50 [32] was 420 nM. The GI50 [33] was 530 nM, the GI50 [34] was 1290 nM and the GI50 [35] was 1130 nM.

— US10428082B2, “Triazole derivatives of melampomagnolide B and methods of use thereof” (BioVentures, LLC, priority 2016, dated 2019)
